According to patent US20100280024A1, “RENIN INHIBITORS” (priority 2007, published 2010):
Counter-ions that a name gives are not always drawn.

Target: T1, Renin (Homo sapiens, UniProt P00797)
T1 sequence (P00797 67-406): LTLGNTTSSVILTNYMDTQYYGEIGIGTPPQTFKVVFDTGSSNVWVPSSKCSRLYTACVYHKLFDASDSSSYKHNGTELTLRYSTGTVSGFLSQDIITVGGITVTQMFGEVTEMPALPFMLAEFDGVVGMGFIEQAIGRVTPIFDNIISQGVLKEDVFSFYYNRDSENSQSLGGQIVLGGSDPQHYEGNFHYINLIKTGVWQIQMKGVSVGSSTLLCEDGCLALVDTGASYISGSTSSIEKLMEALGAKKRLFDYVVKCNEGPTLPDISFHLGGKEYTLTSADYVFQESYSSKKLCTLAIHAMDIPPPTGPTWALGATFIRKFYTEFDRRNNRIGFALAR
Assay: In-vitro renin inhibition assay (modified Cayman renin inhibitor screening assay, fluorescence)
Type: biochemical
Design: purchased Cayman 10006270
Details: 37° C., 30 mins; for inhibition at 0.1 µM: read-out: Renin inhibition (percent inhibition of renin activity) at 0.1 μM; for inhibition at 1 µM: compound concentration 1 μM, read-out: Renin inhibition (percent inhibition of renin activity) at 1 μM
Procedure: In-Vitro Renin Inhibition Assay
The enzymatic in vitro assay was performed in 96 well polypropylene plate (Nunc), using a modified Renin inhibitor screening assay protocol (Cayman, cat no: 10006270). The reaction system comprised assay buffer containing 50 mM Tris-HCL, pH=8.0 & 100 mM sodium chloride, human recombinant renin (1:20 diluted with fixed activity), synthetic renin substrates (9.5 μM) and different concentrations of renin inhibitors in DMSO in a total reaction system of 100 μl. The entire incubation mixture were incubated at 37° C. for 30 mins and the fluorescence was read in kinetic mode using excitation wavelengths of 335-345 nm and emission wavelengths of 485-510 nm. Enzyme inhibition was determined by percent inhibition of renin activity.

SMILES	inhibition at 0.1 µM (compound concentration 0.1 μM) [%]	inhibition at 1 µM [%]	Renin inhibition (percent inhibition of renin activity) at 0.1 μM (compound concentration 0.1 μM)
Cc1cc(Cl)c(OCCOc2ccc(CC(CN)C(=O)N3CCCc4ccccc43)cc2)c(Cl)c1 (stereo not shown) [Example 2, 3-Amino-2-{4-[2-(2,6-dichloro-4-methyl-phenoxy)-ethoxy]-benzyl}-1-(3,4-dihydro-2H-quinolin-1-yl)-propan-1-one]	90.5	97.3	
Cc1cc(Cl)c(OCCOc2ccc(CC(CN)C(=O)N3CCOc4ccccc43)cc2)c(Cl)c1 (stereo not shown) [Example 4, 3-Amino-2-{4-[2-(2,6-dichloro-4-methyl-phenoxy)-ethoxy]-benzyl}-1-(2,3-dihydro-benzo[1,4]oxazin-4-yl)-propan-1-one]		73.5	
Cc1cc(Cl)c(OCCOc2ccc(CC(CN)C(=O)N3CCCc4cc(Cl)ccc43)cc2)c(Cl)c1 (stereo not shown) [Example 5, 3-Amino-1-(6-chloro-3,4-dihydro-2H-quinolin-1-yl)-2-{4-[2-(2,6-dichloro-4-methyl-phenoxy)-ethoxy]-benzyl}-propan-1-one]		79.6	
Cc1cc(Cl)c(OCCOc2ccc(CC(CN)C(=O)N3CCCc4cc(Br)ccc43)cc2)c(Cl)c1 (stereo not shown) [Example 6, 3-Amino-1-(6-bromo-3,4-dihydro-2H-quinolin-1-yl)-2-{4-[2-(2,6-dichloro-4-methyl-phenoxy)-ethoxy]-benzyl}-propan-1-one]		86.5	
Cc1cc(Cl)c(OCCOc2ccc(CC(CN)C(=O)N3CCCc4ccc(C)c(C)c43)cc2)c(Cl)c1 (stereo not shown) [Example 9, 3-Amino-2-{4-[2-(2,6-dichloro-4-methyl-phenoxy)-ethoxy]-benzyl}-1-(7,8-dimethyl-3,4-dihydro-2H-quinolin-1-yl)-propan-1-one]	80.5	98.1	
Cc1cc(Cl)c(OCCOc2ccc(CC(CN)C(=O)N3CCCc4cccc(F)c43)cc2)c(Cl)c1 (stereo not shown) [Example 11, 3-Amino-2-{4-[2-(2,6-dichloro-4-methyl-phenoxy)-ethoxy]-benzyl}-1-(8-fluoro-3,4-dihydro-2H-quinolin-1-yl)-propan-1-one]		68.5	
COc1ccc2c(c1)CCCN2C(=O)C(CN)Cc1ccc(OCCOc2c(Cl)cc(C)cc2Cl)cc1 (stereo not shown) [Example 13, 3-Amino-2-{4-[2-(2,6-dichloro-4-methyl-phenoxy)-ethoxy]-benzyl}-1-(6-methoxy-3,4-dihydro-2H-quinolin-1-yl)-propan-1-one]	32.1	96.5	
Cc1cc(Cl)c(OCCOc2ccc(CC(CN)C(=O)N3CCCc4cc(Cl)cc(Cl)c43)cc2)c(Cl)c1 (stereo not shown) [Example 14, 3-Amino-1-(6,8-dichloro-3,4-dihydro-2H-quinolin-1-yl)-2-{4-[2-(2,6-dichloro-4-methyl-phenoxy)-ethoxy]-benzyl}-propan-1-one]	41.8	87	
Cc1cc(Cl)c(OCCOc2ccc(CC(CN)C(=O)N3CCCc4cc(C(F)(F)F)ccc43)cc2)c(Cl)c1 (stereo not shown) [Example 15, 3-Amino-2-{4-[2-(2,6-dichloro-4-methyl-phenoxy)-ethoxy]-benzyl}-1-(6-trifluoromethyl-3,4-dihydro-2H -quinolin-1-yl)-propan-1-one]	99.2	98.7	
Cc1cc(Cl)c(OCCOc2ccc(CC(CN)C(=O)N3CCCc4cc(C)ccc43)cc2)c(Cl)c1 (stereo not shown) [Example 16, 3-Amino-2-{4-[2-(2,6-dichloro-4-methyl-phenoxy)-ethoxy]-benzyl}-1-(6-methyl-3,4-dihydro-2H-quinolin-1-yl)-propan-1-one]	52.6	87.4	
COc1cc2c(cc1OC)CN(C(=O)C(CN)Cc1ccc(OCCOc3c(Cl)cc(C)cc3Cl)cc1)CC2 (stereo not shown) [Example 17, 2-Aminomethyl-3-{4-[2-(2,6-dichloro-4-methyl-phenoxy)-ethoxy]-phenyl}-1-(6,7-dimethoxy-3,4-dihydro-1H-isoquinolin-2-yl)-propan-1-one]		53.6	
Cc1cc(Cl)c(OCCOc2ccc(CC(CN)C(=O)N3CCC(C)CC3)cc2)c(Cl)c1 (stereo not shown) [Example 18, 3-Amino-2-{4-[2-(2,6-dichloro-4-methyl-phenoxy)-ethoxy]-benzyl}-1-(4-methyl-piperidin-1-yl)-propan-1-one]		65.8	
Cc1cc(Cl)c(OCCOc2ccc(CC(CN)C(=O)N3CCCc4cc(F)ccc43)cc2)c(Cl)c1 (stereo not shown) [Example 20, 3-Amino-2-{4-[2-(2,6-dichloro-4-methyl-phenoxy)-ethoxy]-benzyl}-1-(6-fluoro-3,4-dihydro-2H-quinolin-1-yl)-propan-1-one]	68	96.1	
Cc1cc(Cl)c(OCCOc2ccc(CC(CN)C(=O)N3CCCC3)cc2)c(Cl)c1 (stereo not shown) [Example 23, 3-Amino-2-{4-[2-(2,6-dichloro-4-methyl-phenoxy)-ethoxy]-benzyl}-1-pyrrolidin-1-yl-propan-1-one]	59.5	81.1	
Cc1cc(Cl)c(OCCOc2ccc(CC(CN)C(=O)N3CCOCC3)cc2)c(Cl)c1 (stereo not shown) [Example 25, 3-Amino-2-{4-[2-(2,6-dichloro-4-methyl-phenoxy)-ethoxy]-benzyl}-1-morpholin-4-yl-propan-1-one hydrochloride]	45.1	76.4	
Cc1cc(Cl)c(OCCOc2ccc(CC(CN)C(=O)N3CCCc4cc(OCC(F)(F)F)ccc43)cc2)c(Cl)c1 (stereo not shown) [Example 28, 3-Amino-2-{4-[2-(2,6-dichloro-4-methyl-phenoxy)-ethoxy]-benzyl}-1-[6-(2,2,2-trifluoro-ethoxy)-3,4-dihydro-2H-quinolin-1-yl]-propan-1-one hydrochloride]	73.8		
COC(=O)[C@H]1CCCN1C(=O)C(CN)Cc1ccc(OCCOc2c(Cl)cc(C)cc2Cl)cc1.Cl (stereo partly drawn) [Example 29, D-(2-Aminomethyl-3-{4-[2-(2,6-dichloro-4-methyl-phenoxy)-ethoxy]-phenyl}-propionyl)-pyrrolidine-2-carboxylic acid methyl ester hydrochloride]			90.3
COC1CCCN(C(=O)C(CN)Cc2ccc(OCCOc3c(Cl)cc(C)cc3Cl)cc2)C1 (stereo not shown) [Example 30, 2-Aminomethyl-3-{4-[2-(2,6-dichloro-4-methyl-phenoxy)-ethoxy]-phenyl}-1-(3-methoxy-piperidin-1-yl)-propan-1-one hydrochloride]	92.8	92.9	
Cc1ccc(OCCOc2ccc(CC(CN)C(=O)N3CCCc4cc(C(F)(F)F)ccc43)cc2)c(Cl)c1 (stereo not shown) [Example 33, 3-Amino-2-{4-[2-(2-chloro-4-methyl-phenoxy)-ethoxy]-benzyl}-1-(6-trifluoromethyl-3,4-dihydro-2H-quinolin-1-yl)-propan-1-one]	92.9	89.2	
NCC(Cc1ccc(OCCOc2c(F)cccc2F)cc1)C(=O)N1CCCc2cc(C(F)(F)F)ccc21 (stereo not shown) [Example 34, 3-Amino-2-{4-[2-(2,6-difluoro-phenoxy)-ethoxy]-benzyl}-1-(6-trifluoromethyl-3,4-dihydro-2H-quinolin-1-yl)-propan-1-one hydrochloride]	31.2		
NCC(Cc1ccc(OCCOc2c(F)cccc2F)cc1)C(=O)N1CCCc2cc(F)ccc21 (stereo not shown) [Example 35, 3-Amino-2-{4-[2-(2,6-difluoro-phenoxy)-ethoxy]-benzyl}-1-(6-fluoro-3,4-dihydro-2H-quinolin-1-yl)-propan-1-one hydrochloride]	26.3		
NCC(Cc1ccc(OCCOc2ccc(F)cc2F)cc1)C(=O)N1CCCc2cc(C(F)(F)F)ccc21 (stereo not shown) [Example 36, 3-Amino-2-{4-[2-(2,4-difluoro-phenoxy)-ethoxy]-benzyl}-1-(6-trifluoromethyl-3,4-dihydro-2H-quinolin-1-yl)-propan-1-one hydrochloride]	45		
NCC(Cc1ccc(OCCOc2ccc(Cl)cc2Cl)cc1)C(=O)N1CCCc2cc(F)ccc21 (stereo not shown) [Example 37, 3-Amino-2-{4-[2-(2,4-dichloro-phenoxy)-ethoxy]-benzyl}-1-(6-fluoro-3,4-dihydro-2H-quinolin-1-yl)-propan-1-one hydrochloride]	36.4		
NCC(Cc1ccc(OCCOc2ccc(Cl)cc2Cl)cc1)C(=O)N1CCCc2cc(C(F)(F)F)ccc21 (stereo not shown) [Example 38, 3-Amino-2-{4-[2-(2,4-dichloro-phenoxy)-ethoxy]-benzyl}-1-(6-trifluoromethyl-3,4-dihydro-2H-quinolin-1-yl)-propan-1-one hydrochloride chloride]	35.4		
NCC(Cc1ccc(OCCOc2ccc(Cl)cc2F)cc1)C(=O)N1CCCc2cc(F)ccc21 (stereo not shown) [Example 39, 3-Amino-2-{4-[2-(4-chloro-2-fluoro-phenoxy)-ethoxy]-benzyl}-1-(6-fluoro-3,4-dihydro-2H-quinolin-1-yl)-propan-1-one hydrochloride]	36.3		
NCC(Cc1ccc(OCCOc2ccc(Cl)cc2F)cc1)C(=O)N1CCCc2cc(C(F)(F)F)ccc21 (stereo not shown) [Example 40, 3-Amino-2-{4-[2-(4-chloro-2-fluoro-phenoxy)-ethoxy]-benzyl}-1-(6-trifluoromethyl-3,4-dihydro-2H-quinolin-1-yl)-propan-1-one hydrochloride]	38.9		
